The source made the active and inactive calls. The rule behind the calls is not given here.
System: 4T1
Assay: Cytotoxicity against mouse 4T1 cells under dark condition at 3.12 uM incubated for 24 hrs by MTT assay
Assay type: functional, cell-based
Conditions: not given

| Compound | Activity |
| --- | --- |
| COCCOCCOCCN1/C(=C/C=C/C(C#N)=C/C=C/C2=[N+](CCOCCOCCOC)c3ccccc3C2(C)C)C(C)(C)c2ccccc21.[I-] | Active |

System: HepG2
Assay: Induction of ROS generation in human HepG2 cells at 3.12 uM incubated for 4 hrs followed by exposure to laser irradiation of 808 nm for 2 mins by flow cytometry
Assay type: functional, cell-based
Conditions: time 242.0 min

| Compound | Activity |
| --- | --- |
| COCCOCCOCCN1/C(=C/C=C/C(C#N)=C/C=C/C2=[N+](CCOCCOCCOC)c3ccccc3C2(C)C)C(C)(C)c2ccccc21.[I-] | Active |

System: HepG2
Assay: Cytotoxicity against human HepG2 cells under dark condition at 3.12 uM incubated for 24 hrs by MTT assay
Assay type: functional, cell-based
Conditions: not given

| Compound | Activity |
| --- | --- |
| COCCOCCOCCN1/C(=C/C=C/C(C#N)=C/C=C/C2=[N+](CCOCCOCCOC)c3ccccc3C2(C)C)C(C)(C)c2ccccc21.[I-] | Active |

System: not listed separately
Assay: Photosensitizing property of compound assessed as generation of singlet-state oxygen by ESR spectrometry
Assay type: functional
Conditions: not given

| Compound | Activity |
| --- | --- |
| COCCOCCOCCN1/C(=C/C=C/C(C#N)=C/C=C/C2=[N+](CCOCCOCCOC)c3ccccc3C2(C)C)C(C)(C)c2ccccc21.[I-] | Active |

System: 4T1
Assay: Induction of ROS generation in mouse 4T1 cells at 3.12 uM incubated for 4 hrs followed by exposure to laser irradiation of 808 nm for 2 mins by DCFH-DA probe based CLSM
Assay type: functional, cell-based
Conditions: time 242.0 min

| Compound | Activity |
| --- | --- |
| COCCOCCOCCN1/C(=C/C=C/C(C#N)=C/C=C/C2=[N+](CCOCCOCCOC)c3ccccc3C2(C)C)C(C)(C)c2ccccc21.[I-] | Active |

System: not listed separately
Assay: Drug uptake in human HepG2 cells assessed as increase in fluorescence intensity at 3.12 uM incubated for 4 hrs by CLSM
Assay type: ADME, cell-based
Conditions: hepg2, 4 h

| Compound | Drug uptake |
| --- | --- |
| COCCOCCOCCN1/C(=C/C=C/C(C#N)=C/C=C/C2=[N+](CCOCCOCCOC)c3ccccc3C2(C)C)C(C)(C)c2ccccc21.[I-] | Active |

System: Mitochondrial membrane
Assay: Inhibition of mitochondrial membrane potential in mouse 4T1 cells at 3.12 uM incubated for 24 hrs by Rh123 probe based CLSM
Assay type: cell membranes
Conditions: not given

| Compound | inhibition |
| --- | --- |
| COCCOCCOCCN1/C(=C/C=C/C(C#N)=C/C=C/C2=[N+](CCOCCOCCOC)c3ccccc3C2(C)C)C(C)(C)c2ccccc21.[I-] | Active; Certain Degree Of Inhibition Was Observed |

System: Mitochondrial membrane
Assay: Inhibition of mitochondrial membrane potential in mouse 4T1 cells assessed as green fluorescence at 3.12 uM preincubated for 4 hrs followed by exposure to laser irradiation of 808 nm for 2 mins and subsequent incubation for 20 hrs by JC-1 dye based analysis
Assay type: cell membranes
Conditions: time 1442.0 min

| Compound | inhibition |
| --- | --- |
| COCCOCCOCCN1/C(=C/C=C/C(C#N)=C/C=C/C2=[N+](CCOCCOCCOC)c3ccccc3C2(C)C)C(C)(C)c2ccccc21.[I-] | Active |

System: Mitochondrial membrane
Assay: Inhibition of mitochondrial membrane potential in human HepG2 cells at 3.12 uM incubated for 24 hrs by Rh123 probe based CLSM
Assay type: cell membranes
Conditions: not given

| Compound | inhibition |
| --- | --- |
| COCCOCCOCCN1/C(=C/C=C/C(C#N)=C/C=C/C2=[N+](CCOCCOCCOC)c3ccccc3C2(C)C)C(C)(C)c2ccccc21.[I-] | Active; Certain Degree Of Inhibition Was Observed |

System: Mitochondrial membrane
Assay: Inhibition of mitochondrial membrane potential in human HepG2 cells at 3.12 uM incubated for 24 hrs by flow cytometry
Assay type: cell membranes
Conditions: not given

| Compound | inhibition |
| --- | --- |
| COCCOCCOCCN1/C(=C/C=C/C(C#N)=C/C=C/C2=[N+](CCOCCOCCOC)c3ccccc3C2(C)C)C(C)(C)c2ccccc21.[I-] | Active; Certain Degree Of Inhibition Was Observed |

System: HepG2
Assay: Induction of ROS generation in human HepG2 cells at 3.12 uM incubated for 4 hrs followed by exposure to laser irradiation of 808 nm for 2 mins by DCFH-DA probe based CLSM
Assay type: functional, cell-based
Conditions: time 242.0 min

| Compound | Activity |
| --- | --- |
| COCCOCCOCCN1/C(=C/C=C/C(C#N)=C/C=C/C2=[N+](CCOCCOCCOC)c3ccccc3C2(C)C)C(C)(C)c2ccccc21.[I-] | Active |

System: Mitochondrial membrane
Assay: Inhibition of mitochondrial membrane potential in mouse 4T1 cells at 3.12 uM preincubated for 4 hrs followed by exposure to laser irradiation of 808 nm for 2 mins and subsequent incubation for 20 hrs by Rh123 probe based CLSM
Assay type: cell membranes
Conditions: time 1442.0 min

| Compound | inhibition |
| --- | --- |
| COCCOCCOCCN1/C(=C/C=C/C(C#N)=C/C=C/C2=[N+](CCOCCOCCOC)c3ccccc3C2(C)C)C(C)(C)c2ccccc21.[I-] | Active; Significant Inhibition Was Observed |

System: not listed separately
Assay: Drug uptake in human HepG2 cells assessed as increase in fluorescence intensity at 3.12 uM incubated for 4 hrs by flow cytometry
Assay type: ADME, cell-based
Conditions: hepg2, 4 h

| Compound | Drug uptake |
| --- | --- |
| COCCOCCOCCN1/C(=C/C=C/C(C#N)=C/C=C/C2=[N+](CCOCCOCCOC)c3ccccc3C2(C)C)C(C)(C)c2ccccc21.[I-] | Active |

System: not listed separately
Assay: Photothermal property of compound assessed as increase in photothermal conversion efficiency at 20 uM exposed to laser irradiation of 808 nm for 2 mins
Assay type: functional
Conditions: not given

| Compound | Activity |
| --- | --- |
| COCCOCCOCCN1/C(=C/C=C/C(C#N)=C/C=C/C2=[N+](CCOCCOCCOC)c3ccccc3C2(C)C)C(C)(C)c2ccccc21.[I-] | 0.7% |

System: Mitochondrial membrane
Assay: Inhibition of mitochondrial membrane potential in human HepG2 cells at 3.12 uM preincubated for 4 hrs followed by exposure to laser irradiation of 808 nm for 2 mins and subsequent incubation for 20 hrs by Rh123 probe based CLSM
Assay type: cell membranes
Conditions: time 1442.0 min

| Compound | inhibition |
| --- | --- |
| COCCOCCOCCN1/C(=C/C=C/C(C#N)=C/C=C/C2=[N+](CCOCCOCCOC)c3ccccc3C2(C)C)C(C)(C)c2ccccc21.[I-] | Active; Significant Inhibition Was Observed |

System: not listed separately
Assay: Drug uptake in mouse 4T1 cells assessed as increase in fluorescence intensity at 3.12 uM incubated for 4 hrs by flow cytometry
Assay type: ADME, cell-based
Conditions: 4t1, 4 h

| Compound | Drug uptake |
| --- | --- |
| COCCOCCOCCN1/C(=C/C=C/C(C#N)=C/C=C/C2=[N+](CCOCCOCCOC)c3ccccc3C2(C)C)C(C)(C)c2ccccc21.[I-] | Active |

System: Mitochondrial membrane
Assay: Inhibition of mitochondrial membrane potential in mouse 4T1 cells at 3.12 uM preincubated for 4 hrs followed by exposure to laser irradiation of 808 nm for 2 mins and subsequent incubation for 20 hrs by flow cytometry
Assay type: cell membranes
Conditions: time 1442.0 min

| Compound | inhibition |
| --- | --- |
| COCCOCCOCCN1/C(=C/C=C/C(C#N)=C/C=C/C2=[N+](CCOCCOCCOC)c3ccccc3C2(C)C)C(C)(C)c2ccccc21.[I-] | Active; Significant Inhibition Was Observed |

System: HepG2
Assay: Induction of apoptosis in human HepG2 cells at 3.12 uM incubated for 4 hrs followed by exposure to laser irradiation of 808 nm for 2 mins by Annexin V-FITC/PI staining based flow cytometry
Assay type: functional, cell-based
Conditions: time 242.0 min

| Compound | Activity |
| --- | --- |
| COCCOCCOCCN1/C(=C/C=C/C(C#N)=C/C=C/C2=[N+](CCOCCOCCOC)c3ccccc3C2(C)C)C(C)(C)c2ccccc21.[I-] | Active |

System: not listed separately
Assay: Drug uptake in mouse 4T1 cells assessed as increase in fluorescence intensity at 3.12 uM incubated for 4 hrs by CLSM
Assay type: ADME, cell-based
Conditions: 4t1, 4 h

| Compound | Drug uptake |
| --- | --- |
| COCCOCCOCCN1/C(=C/C=C/C(C#N)=C/C=C/C2=[N+](CCOCCOCCOC)c3ccccc3C2(C)C)C(C)(C)c2ccccc21.[I-] | Active |

System: not listed separately
Assay: Aqueous solubility of compound by absorbance based assay
Assay type: physicochemical
Conditions: buffer

| Compound | solubility |
| --- | --- |
| COCCOCCOCCN1/C(=C/C=C/C(C#N)=C/C=C/C2=[N+](CCOCCOCCOC)c3ccccc3C2(C)C)C(C)(C)c2ccccc21.[I-] | soluble |

System: Mitochondrial membrane
Assay: Inhibition of mitochondrial membrane potential in human HepG2 cells at 3.12 uM preincubated for 4 hrs followed by exposure to laser irradiation of 808 nm for 2 mins and subsequent incubation for 20 hrs by flow cytometry
Assay type: cell membranes
Conditions: time 1442.0 min

| Compound | inhibition |
| --- | --- |
| COCCOCCOCCN1/C(=C/C=C/C(C#N)=C/C=C/C2=[N+](CCOCCOCCOC)c3ccccc3C2(C)C)C(C)(C)c2ccccc21.[I-] | Active; Significant Inhibition Was Observed |

System: Mitochondrial membrane
Assay: Inhibition of mitochondrial membrane potential in mouse 4T1 cells at 3.12 uM incubated for 24 hrs by flow cytometry
Assay type: cell membranes
Conditions: not given

| Compound | inhibition |
| --- | --- |
| COCCOCCOCCN1/C(=C/C=C/C(C#N)=C/C=C/C2=[N+](CCOCCOCCOC)c3ccccc3C2(C)C)C(C)(C)c2ccccc21.[I-] | Active; Certain Degree Of Inhibition Was Observed |

System: not listed separately
Assay: Photothermal stability of compound at 60 degreeC at 20 uM exposed to laser irradiation of 808 nm for 2.5 mins
Assay type: physicochemical
Conditions: not given

| Compound | Stability |
| --- | --- |
| COCCOCCOCCN1/C(=C/C=C/C(C#N)=C/C=C/C2=[N+](CCOCCOCCOC)c3ccccc3C2(C)C)C(C)(C)c2ccccc21.[I-] | Stable |

System: Mitochondrial membrane
Assay: Inhibition of mitochondrial membrane potential in human HepG2 cells assessed as green fluorescence at 3.12 uM preincubated for 4 hrs followed by exposure to laser irradiation of 808 nm for 2 mins and subsequent incubation for 20 hrs by JC-1 dye based analysis
Assay type: cell membranes
Conditions: time 1442.0 min

| Compound | inhibition |
| --- | --- |
| COCCOCCOCCN1/C(=C/C=C/C(C#N)=C/C=C/C2=[N+](CCOCCOCCOC)c3ccccc3C2(C)C)C(C)(C)c2ccccc21.[I-] | Active |

System: 4T1
Assay: Induction of apoptosis in mouse 4T1 cells at 3.12 uM incubated for 4 hrs followed by exposure to laser irradiation of 808 nm for 2 mins by Annexin V-FITC/PI staining based flow cytometry
Assay type: functional, cell-based
Conditions: time 242.0 min

| Compound | Activity |
| --- | --- |
| COCCOCCOCCN1/C(=C/C=C/C(C#N)=C/C=C/C2=[N+](CCOCCOCCOC)c3ccccc3C2(C)C)C(C)(C)c2ccccc21.[I-] | Active |

System: not listed separately
Assay: Photosensitizing property of compound assessed as generation of singlet-state oxygen at 10 uM exposed to laser irradiation of 808 nm for 2 mins by SOSG probe based analysis
Assay type: functional
Conditions: not given

| Compound | Activity |
| --- | --- |
| COCCOCCOCCN1/C(=C/C=C/C(C#N)=C/C=C/C2=[N+](CCOCCOCCOC)c3ccccc3C2(C)C)C(C)(C)c2ccccc21.[I-] | Active |

System: 4T1
Assay: Induction of ROS generation in mouse 4T1 cells at 3.12 uM incubated for 4 hrs followed by exposure to laser irradiation of 808 nm for 2 mins by flow cytometry
Assay type: functional, cell-based
Conditions: time 242.0 min

| Compound | Activity |
| --- | --- |
| COCCOCCOCCN1/C(=C/C=C/C(C#N)=C/C=C/C2=[N+](CCOCCOCCOC)c3ccccc3C2(C)C)C(C)(C)c2ccccc21.[I-] | Active |

Source: ChEMBL document CHEMBL6182861, “Structural modification of heptamethine indocyanine dyes with improved aqueous solubility and stability for photothermal therapy” (Eur J Med Chem, 2025)
